Reference: ChEMBL document CHEMBL3885881, “DrugMatrix”

Species on record: Rattus norvegicus
Assay: DrugMatrix - Regimen: Daily Repeat
Format: toxicity, organism-based, Sprague-Dawley
Parameters: regimen Daily Repeat, gender Male, age 6-8 weeks
Settings: in vivo, po, route oral GAVAGE, vehicle 100 % WATER; for ABSOLUTE BASOPHIL / ABSOLUTE EOSINOPHIL / ABSOLUTE LYMPHOCYTE / ABSOLUTE MONOCYTE / ABSOLUTE SEGMENTED NEUTROPHIL / BASOPHIL / EOSINOPHIL / ERYTHROCYTE COUNT / HEMATOCRIT / HEMOGLOBIN / LEUKOCYTE COUNT / LYMPHOCYTE / MEAN CORPUSCULAR HEMOGLOBIN / MEAN CORPUSCULAR HEMOGLOBIN CONCENTRATION / MEAN CORPUSCULAR VOLUME / MONOCYTE / NEUTROPHIL / NUCLEATED RED BLOOD CELLS / PLATELET COUNT: tissue Blood; for ALANINE AMINOTRANSFERASE / ALBUMIN / ALKALINE PHOSPHATASE / ASPARTATE AMINOTRANSFERASE / BLOOD UREA NITROGEN / CARBON DIOXIDE / CHLORIDE / CHOLESTEROL / CREATINE PHOSPHOKINASE / CREATININE / GLUCOSE / LACTATE DEHYDROGENASE / LIPASE / PHOSPHORUS / POTASSIUM / SODIUM / TOTAL BILIRUBIN / TOTAL PROTEIN / URIC ACID: tissue Plasma
[1] = 46 mg/kg, 72 h, dose level High, time 3 day
[2] = 46 mg/kg, 120 h, dose level High, time 5 day
[3] = […], 72 h, dose 4.6 mg/Kg, dose level Low, time 3 day
[4] = […], 120 h, dose 4.6 mg/Kg, dose level Low, time 5 day

CC(C)NNC(=O)c1ccncc1 [IPRONIAZID]
ABSOLUTE BASOPHIL [1]: 0 CELLS/uL
ABSOLUTE EOSINOPHIL [1]: 0 CELLS/uL
ABSOLUTE LYMPHOCYTE [1]: 9249.33 CELLS/uL
ABSOLUTE MONOCYTE [1]: 21.67 CELLS/uL
ABSOLUTE SEGMENTED NEUTROPHIL [1]: 762.33 CELLS/uL
BASOPHIL [1]: 0%
EOSINOPHIL [1]: 0%
ERYTHROCYTE COUNT [1]: 5.56 x10E6/uL
HEMATOCRIT [1]: 34.37%
HEMOGLOBIN [1]: 13.47 G/DL
LEUKOCYTE COUNT [1]: 10.03 x10E3/uL
LYMPHOCYTE [1]: 91.33%
MEAN CORPUSCULAR HEMOGLOBIN [1]: 24.27 pg
MEAN CORPUSCULAR HEMOGLOBIN CONCENTRATION [1]: 39.17 G/DL
MEAN CORPUSCULAR VOLUME [1]: 61.87 fL
MONOCYTE [1]: 0.33%
NEUTROPHIL [1]: 8.33%
NUCLEATED RED BLOOD CELLS [1]: 0 /100WBC
PLATELET COUNT [1]: 1304.67 x10E3/uL
ALANINE AMINOTRANSFERASE [1]: 37 u/L
ALBUMIN [1]: 4.23 G/DL
ALKALINE PHOSPHATASE [1]: 308 u/L
ASPARTATE AMINOTRANSFERASE [1]: 89 u/L
BLOOD UREA NITROGEN [1]: 17 mg/dL
CARBON DIOXIDE [1]: 29 mmol/L
CHLORIDE [1]: 103 MEQ/L
CHOLESTEROL [1]: 80.67 mg/dL
CREATINE PHOSPHOKINASE [1]: 622.67 u/L
CREATININE [1]: 0.21 mg/dL
GLUCOSE [1]: 160.67 mg/dL
LACTATE DEHYDROGENASE [1]: 288.33 u/L
LIPASE [1]: 11.67 u/L
PHOSPHORUS [1]: 12.93 mg/dL
POTASSIUM [1]: 6.22 MEQ/L
SODIUM [1]: 145.5 MEQ/L
TOTAL BILIRUBIN [1]: 0.17 mg/dL
TOTAL PROTEIN [1]: 5.97 G/DL
URIC ACID [1]: 1.77 mg/dL
ABSOLUTE BASOPHIL [2]: 0 CELLS/uL
ABSOLUTE EOSINOPHIL [2]: 126 CELLS/uL
ABSOLUTE LYMPHOCYTE [2]: 15175.33 CELLS/uL
ABSOLUTE MONOCYTE [2]: 93.67 CELLS/uL
ABSOLUTE SEGMENTED NEUTROPHIL [2]: 271.67 CELLS/uL
BASOPHIL [2]: 0%
EOSINOPHIL [2]: 0.67%
ERYTHROCYTE COUNT [2]: 5.63 x10E6/uL
HEMATOCRIT [2]: 33.73%
HEMOGLOBIN [2]: 13.4 G/DL
LEUKOCYTE COUNT [2]: 15.67 x10E3/uL
LYMPHOCYTE [2]: 97%
MEAN CORPUSCULAR HEMOGLOBIN [2]: 23.8 pg
MEAN CORPUSCULAR HEMOGLOBIN CONCENTRATION [2]: 39.77 G/DL
MEAN CORPUSCULAR VOLUME [2]: 59.8 fL
MONOCYTE [2]: 0.67%
NEUTROPHIL [2]: 1.67%
NUCLEATED RED BLOOD CELLS [2]: 0 /100WBC
PLATELET COUNT [2]: 1219.33 x10E3/uL
ALANINE AMINOTRANSFERASE [2]: 39 u/L
ALBUMIN [2]: 3.87 G/DL
ALKALINE PHOSPHATASE [2]: 312.33 u/L
ASPARTATE AMINOTRANSFERASE [2]: 118.33 u/L
BLOOD UREA NITROGEN [2]: 18.67 mg/dL
CARBON DIOXIDE [2]: 22 mmol/L
CHLORIDE [2]: 106.67 MEQ/L
CHOLESTEROL [2]: 56 mg/dL
CREATINE PHOSPHOKINASE [2]: 1266.33 u/L
CREATININE [2]: 0.24 mg/dL
GLUCOSE [2]: 163.67 mg/dL
LACTATE DEHYDROGENASE [2]: 328.67 u/L
LIPASE [2]: 10 u/L
PHOSPHORUS [2]: 11.83 mg/dL
POTASSIUM [2]: 5.65 MEQ/L
SODIUM [2]: 148.8 MEQ/L
TOTAL BILIRUBIN [2]: 0.23 mg/dL
TOTAL PROTEIN [2]: 5.53 G/DL
URIC ACID [2]: 1.8 mg/dL
ABSOLUTE BASOPHIL [3]: 0 CELLS/uL
ABSOLUTE EOSINOPHIL [3]: 0 CELLS/uL
ABSOLUTE LYMPHOCYTE [3]: 11668 CELLS/uL
ABSOLUTE MONOCYTE [3]: 117.67 CELLS/uL
ABSOLUTE SEGMENTED NEUTROPHIL [3]: 1081 CELLS/uL
BASOPHIL [3]: 0%
EOSINOPHIL [3]: 0%
ERYTHROCYTE COUNT [3]: 4.84 x10E6/uL
HEMATOCRIT [3]: 31.5%
HEMOGLOBIN [3]: 12.83 G/DL
LEUKOCYTE COUNT [3]: 12.87 x10E3/uL
LYMPHOCYTE [3]: 90.33%
MEAN CORPUSCULAR HEMOGLOBIN [3]: 26.5 pg
MEAN CORPUSCULAR HEMOGLOBIN CONCENTRATION [3]: 40.77 G/DL
MEAN CORPUSCULAR VOLUME [3]: 65 fL
MONOCYTE [3]: 1%
NEUTROPHIL [3]: 8.67%
NUCLEATED RED BLOOD CELLS [3]: 0 /100WBC
PLATELET COUNT [3]: 1111.67 x10E3/uL
ALANINE AMINOTRANSFERASE [3]: 56 u/L
ALBUMIN [3]: 4.23 G/DL
ALKALINE PHOSPHATASE [3]: 342.67 u/L
ASPARTATE AMINOTRANSFERASE [3]: 108 u/L
BLOOD UREA NITROGEN [3]: 13.67 mg/dL
CARBON DIOXIDE [3]: 26.33 mmol/L
CHLORIDE [3]: 105 MEQ/L
CHOLESTEROL [3]: 80.67 mg/dL
CREATINE PHOSPHOKINASE [3]: 777.33 u/L
CREATININE [3]: 0.24 mg/dL
GLUCOSE [3]: 165.67 mg/dL
LACTATE DEHYDROGENASE [3]: 493.33 u/L
LIPASE [3]: 8.33 u/L
PHOSPHORUS [3]: 13.3 mg/dL
POTASSIUM [3]: 6.06 MEQ/L
SODIUM [3]: 144.47 MEQ/L
TOTAL BILIRUBIN [3]: 0.17 mg/dL
TOTAL PROTEIN [3]: 5.67 G/DL
URIC ACID [3]: 1.5 mg/dL
ABSOLUTE BASOPHIL [4]: 0 CELLS/uL
ABSOLUTE EOSINOPHIL [4]: 175.33 CELLS/uL
ABSOLUTE LYMPHOCYTE [4]: 14127.33 CELLS/uL
ABSOLUTE MONOCYTE [4]: 0 CELLS/uL
ABSOLUTE SEGMENTED NEUTROPHIL [4]: 1364 CELLS/uL
BASOPHIL [4]: 0%
EOSINOPHIL [4]: 1%
ERYTHROCYTE COUNT [4]: 5.43 x10E6/uL
HEMATOCRIT [4]: 34.73%
HEMOGLOBIN [4]: 13.6 G/DL
LEUKOCYTE COUNT [4]: 15.67 x10E3/uL
LYMPHOCYTE [4]: 90.33%
MEAN CORPUSCULAR HEMOGLOBIN [4]: 25.07 pg
MEAN CORPUSCULAR HEMOGLOBIN CONCENTRATION [4]: 39.17 G/DL
MEAN CORPUSCULAR VOLUME [4]: 63.97 fL
MONOCYTE [4]: 0%
NEUTROPHIL [4]: 8.67%
NUCLEATED RED BLOOD CELLS [4]: 0 /100WBC
PLATELET COUNT [4]: 1364.67 x10E3/uL
ALANINE AMINOTRANSFERASE [4]: 58.33 u/L
ALBUMIN [4]: 4.33 G/DL
ALKALINE PHOSPHATASE [4]: 411.67 u/L
ASPARTATE AMINOTRANSFERASE [4]: 88.33 u/L
BLOOD UREA NITROGEN [4]: 18.33 mg/dL
CARBON DIOXIDE [4]: 27.33 mmol/L
CHLORIDE [4]: 103 MEQ/L
CHOLESTEROL [4]: 72 mg/dL
CREATINE PHOSPHOKINASE [4]: 231.67 u/L
CREATININE [4]: 0.23 mg/dL
GLUCOSE [4]: 179 mg/dL
LACTATE DEHYDROGENASE [4]: 197.33 u/L
LIPASE [4]: 11 u/L
PHOSPHORUS [4]: 14.8 mg/dL
POTASSIUM [4]: 6.06 MEQ/L
SODIUM [4]: 146.8 MEQ/L
TOTAL BILIRUBIN [4]: 0.2 mg/dL
TOTAL PROTEIN [4]: 6.07 G/DL
URIC ACID [4]: 2.07 mg/dL
